Assay results reported in patent publication US11731986B2 (Sanford Burnham Prebys Medical Discovery Institute, priority 2017, dated 2023).
pIC50: −log10 of the molar value.

Molecular target: T1, human LMPTP-A (Homo sapiens, UniProt P24666)
T1 sequence (P24666 1-158): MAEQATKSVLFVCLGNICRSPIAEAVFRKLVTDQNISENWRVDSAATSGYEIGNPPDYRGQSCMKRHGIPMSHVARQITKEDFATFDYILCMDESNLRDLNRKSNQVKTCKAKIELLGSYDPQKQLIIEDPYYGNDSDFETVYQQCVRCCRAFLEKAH
Test: Enzyme Assay of Inhibition of LMPTP-A (phosphatase assay, OMFP or pNPP substrate)
Type: biochemical
Conditions: Bis-Tris pH 6.0, 37° C.
Method: Phosphatase assays were performed in buffer containing 50 mM Bis-Tris, pH 6.0, 1 mM DTT and 0.01% Triton X-100 at 37° C. For assays conducted with 3-O-methylfluorescein phosphate (OMFP) as substrate, fluorescence was monitored continuously at λex=485 and λem=525 nm. For assays conducted with para-nitrophenylphosphate (pNPP) as substrate, the reaction was stopped by addition of 2× reaction volume of 1 M NaOH, and absorbance was measured at 405 nm. IC50 values of compounds of Formula (I), (II), (III), or (IV) were determined from plots of inhibitor concentration versus percentage of enzyme activity. For inhibitor selectivity assays, each PTP was incubated with either 0.4 mM OMFP or 5 mM pNPP in the presence of 40 μM compound or DMSO. […] For the inhibitor reversibility assay, 50 nM human LMPTP-A was pre-incubated with 10 μM of compound of Formula (I), (II), (III), or (IV) or DMSO for 5 min. The enzyme was diluted 100× in phosphatase assay buffer containing 0.4 mM OMFP and fluorescence was measured at the indicated time points.

Q: With `CCN(CC)C(=O)c1cc2ccc(-c3cc(NCCCN4CCCCC4)c4cnccc4n3)cc2s1` [N,N-diethyl-6-(4-(3-(piperidin-1-yl)propylamino)-1,6-naphthyridin-2-yl)benzo[b]thiophene-2-carboxamide] as the molecule, how does the pIC50 read?
A: Its pIC50 is at least 6.00.

Q: How did the pIC50 turn out when `O=C(NCCCN1CCCCC1)c1ccc(-c2cc(NC3CCNC3)c3cnccc3n2)cc1` (stereo not drawn) [N-(3-(Piperidin-1-yl)propyl)-4-(4-(pyrrolidin-3-ylamino)-1,6-naphthyridin-2-yl)benzamide] was run?
A: The pIC50 was 4.70 to 6.00.

Q: `Cn1c(C(=O)NC2CCOCC2)cc2cc(-c3cc(NCCCN4CCCCC4)c4cnccc4n3)ccc21` [1-methyl-5-(4-((3-(piperidin-1-yl)propyl)amino)-1,6-naphthyridin-2-yl)-N-(tetrahydro-2H-pyran-4-yl)-1H-indole-2-carboxamide] was tested. Which pIC50 did it give?
A: Its pIC50 is at least 6.00.

Q: How did the pIC50 turn out when `CCN1CCC(NC(=O)c2cc3ccc(-c4cc(NCCCN5CCCCC5)c5cnccc5n4)cc3s2)CC1` [N-(1-ethylpiperidin-4-yl)-6-(4-(3-(piperidin-1-yl)propylamino)-1,6-naphthyridin-2-yl)benzo[b]thiophene-2-carboxamide] was run?
A: Its pIC50 is at least 6.00.

Q: With `O=C(COCc1ccc(-c2cc(NCCCN3CCCCC3)c3cnccc3n2)cc1)NCCCN1CCCCC1` [N-(3-(piperidin-1-yl)propyl)-2-((4-(4-((3-(piperidin-1-yl)propyl)amino)-1,6-naphthyridin-2-yl)benzyl)oxy)acetamide] as the molecule, how does the pIC50 read?
A: Its pIC50 is 4.70 to 6.00.

Q: How did the pIC50 turn out when `CN1CCN(C(=O)c2cc3ccc(-c4cc(NCCCN5CCCCC5)c5cnccc5n4)cc3s2)CC1` [(4-methylpiperazin-1-yl)(6-(4-(3-(piperidin-1-yl)propylamino)-1,6-naphthyridin-2-yl)benzo[b]thiophen-2-yl)methanone] was run?
A: Its pIC50 is at least 6.00.

Q: How did the pIC50 turn out when `CCN(CC)C(=O)c1ccc(-c2cc(Nc3ccc(N(C)C)cc3)c3cnccc3n2)cc1` [4-(4-(4-(Dimethylamino)phenylamino)-1,6-naphthyridin-2-yl)-N,N-diethylbenzamide] was run?
A: Its pIC50 is 4.70 to 6.00.

Q: How did the pIC50 turn out when `O=C(NCCCN1CCCCC1)c1nc2cc(-c3cc(Nc4ccc(CN5CCCC5)cc4)c4cnccc4n3)ccc2[nH]1` [N-(3-(piperidin-1-yl)propyl)-5-(4-((4-(pyrrolidin-1-ylmethyl)phenyl)amino)-1,6-naphthyridin-2-yl)-1H-benzo[d]imidazole-2-carboxamide] was run?
A: Its pIC50 is at least 6.00.

Q: `CC(CCN1CCCCC1)Nc1cc(-c2ccc3c(c2)cc(C(=O)NC2CCN(C)CC2)n3C)nc2ccncc12` (stereo not drawn) [1-Methyl-N-(1-methylpiperidin-4-yl)-5-(4-(4-(piperidin-1-yl)butan-2-ylamino)-1,6-naphthyridin-2-yl)-1H-indole-2-carboxamide] was tested. Which pIC50 did it give?
A: Its pIC50 is 4.70 to 6.00.

Q: How did the pIC50 turn out when `CNc1cc(-c2ccc3c(c2)cc(C(=O)NC2CCN(C)CC2)n3C)nc2ccncc12` [1-methyl-5-(4-(methylamino)-1,6-naphthyridin-2-yl)-N-(1-methylpiperidin-4-yl)-1H-indole-2-carboxamide] was run?
A: The pIC50 was 4.70 to 6.00.

Q: How did the pIC50 turn out when `CN(C)CCNC(=O)c1cc2ccc(-c3cc(NCCCN4CCCCC4)c4cnccc4n3)cc2[nH]1` [N-(2-(Dimethylamino)ethyl)-6-(4-(3-(piperidin-1-yl)propylamino)-1,6-naphthyridin-2-yl)-1H-indole-2-carboxamide] was run?
A: The pIC50 was 4.70 to 6.00.

Q: With `CN1CCC(NC(=O)c2ccc(-c3cc(NCCCN4CCCCC4)c4cnccc4n3)cn2)CC1` [N-(1-methylpiperidin-4-yl)-5-(4-((3-(piperidin-1-yl)propyl)amino)-1,6-naphthyridin-2-yl)picolinamide] as the molecule, how does the pIC50 read?
A: The pIC50 was 4.70 to 6.00.

Q: How did the pIC50 turn out when `CN1CCC(NC(=O)c2ccc(-c3cc(NC4CCN(C)CC4)c4cnccc4n3)cc2)CC1` [N-(1-Methylpiperidin-4-yl)-4-(4-((1-methylpiperidin-4-yl)amino)-1,6-naphthyridin-2-yl)benzamide] was run?
A: Its pIC50 is 4.70 to 6.00.

Q: With `CN1CCC(NC(=O)c2cc3cc(-c4cc(NCc5ccc(CN6CCCCC6)cc5)c5cnccc5n4)ccc3n2C)CC1` [1-methyl-N-(1-methylpiperidin-4-yl)-5-(4-(4-(piperidin-1-ylmethyl)benzylamino)-1,6-naphthyridin-2-yl)-1H-indole-2-carboxamide] as the molecule, how does the pIC50 read?
A: Its pIC50 is at least 6.00.

Q: How did the pIC50 turn out when `CCN(CC)C(=O)c1ccc(-c2cc(NCCCN3CCCCC3)c3ccncc3n2)cc1` [N,N-diethyl-4-(4-(3-(piperidin-1-yl)propylamino)-1,7-naphthyridin-2-yl)benzamide] was run?
A: Its pIC50 is at most 4.70.

Q: How did the pIC50 turn out when `CCN(CC)C(=O)CCOc1ccc(-c2cc(NCCCN3CCCCC3)c3cnccc3n2)cc1` [N,N-diethyl-3-(4-(4-((3-(piperidin-1-yl)propyl)amino)-1,6-naphthyridin-2-yl)phenoxy)propanamide] was run?
A: Its pIC50 is at most 4.70.

Q: With `CO/N=C(\NC1CCN(C)CC1)c1ccc(-c2cc(NCCCN3CCCCC3)c3cnccc3n2)cc1` [(Z)-N′-methoxy-N-(1-methylpiperidin-4-yl)-4-(4-(3-(piperidin-1-yl)propylamino)-1,6-naphthyridin-2-yl)benzimidamide] as the molecule, how does the pIC50 read?
A: Its pIC50 is at least 6.00.

Q: With `COc1cc(-c2ccc3c(c2)cc(C(=O)NC2CCN(C)CC2)n3C)nc2ccncc12` [5-(4-methoxy-1,6-naphthyridin-2-yl)-1-methyl-N-(1-methylpiperidin-4-yl)-1H-indole-2-carboxamide] as the molecule, how does the pIC50 read?
A: The pIC50 was at most 4.70.

Q: With `CN1CCC(NC(=O)/C=C/c2ccc(-c3cc(NCCCN4CCCCC4)c4cnccc4n3)o2)CC1` [(E)-N-(1-Methylpiperidin-4-yl)-3-(5-(4-((3-(piperidin-1-yl)propyl)amino)-1,6-naphthyridin-2-yl)furan-2-yl)acrylamide] as the molecule, how does the pIC50 read?
A: Its pIC50 is at most 4.70.

Q: `Cc1cncc2c(NCCCN3CCCCC3)cc(-c3ccc(C(=O)NC4CCN(C)CC4)cc3)nc12` [4-(8-Methyl-4-((3-(piperidin-1-yl)propyl)amino)-1,6-naphthyridin-2-yl)-N-(1-methylpiperidin-4-yl)benzamide] was tested. Which pIC50 did it give?
A: The pIC50 was at most 4.70.

Q: With `CN1CCC(NC(=O)CCOc2ccc(-c3cc(NCCCN4CCCCC4)c4cnccc4n3)cc2)CC1` [N-(1-methylpiperidin-4-yl)-3-(4-(4-((3-(piperidin-1-yl)propyl)amino)-1,6-naphthyridin-2-yl)phenoxy)propanamide] as the molecule, how does the pIC50 read?
A: Its pIC50 is at most 4.70.

Q: `O=C(NCCCN1CCCCC1)c1ccc(-c2cc(NCCCN3CCCCC3)c3cnccc3n2)cn1` [N-(3-(piperidin-1-yl)propyl)-5-(4-((3-(piperidin-1-yl)propyl)amino)-1,6-naphthyridin-2-yl)picolinamide] was tested. Which pIC50 did it give?
A: The pIC50 was at most 4.70.

Q: `CN(C)CCNC(=O)c1ccc(-c2cc(NCCCN3CCCCC3)c3cnccc3n2)cc1` [N-(2-(dimethylamino)ethyl)-4-(4-((3-(piperidin-1-yl)propyl)amino)-1,6-naphthyridin-2-yl)benzamide] was tested. Which pIC50 did it give?
A: The pIC50 was at least 6.00.

Q: How did the pIC50 turn out when `CCN(CC)C(=O)COCc1ccc(-c2cc(NCCCN3CCCCC3)c3cnccc3n2)cc1` [N,N-diethyl-2-((4-(4-((3-(piperidin-1-yl)propyl)amino)-1,6-naphthyridin-2-yl)benzyl)oxy)acetamide] was run?
A: The pIC50 was 4.70 to 6.00.

Q: How did the pIC50 turn out when `O=C(NCCCN1CCCCC1)c1ccc(-c2cc(NC3CCOCC3)c3cnccc3n2)cc1` [N-(3-(Piperidin-1-yl)propyl)-4-(4-((tetrahydro-2H-pyran-4-yl)amino)-1,6-naphthyridin-2-yl)benzamide] was run?
A: The pIC50 was 4.70 to 6.00.

Q: With `CCN1CCC(CNC(=O)CCOc2ccc(-c3cc(N(CC)CCCN4CCCCC4)c4cnccc4n3)cc2)CC1` [3-(4-(4-(ethyl(3-(piperidin-1-yl)propyl)amino)-1,6-naphthyridin-2-yl)phenoxy)-N-((1-ethylpiperidin-4-yl)methyl)propanamide] as the molecule, how does the pIC50 read?
A: Its pIC50 is at most 4.70.

Q: How did the pIC50 turn out when `CCN(CC)C(=O)c1ccc(-c2cc(NCCN3CCOCC3)c3cnccc3n2)cc1` [N,N-diethyl-4-(4-(2-morpholinoethylamino)-1,6-naphthyridin-2-yl)benzamide] was run?
A: Its pIC50 is 4.70 to 6.00.

Q: With `O=C(c1nc2ccc(-c3cc(NCCCN4CCCCC4)c4cnccc4n3)cc2s1)N1CCNCC1` [Piperazin-1-yl(6-(4-(3-(piperidin-1-yl)propylamino)-1,6-naphthyridin-2-yl)benzo[d]thiazol-2-yl)methanone] as the molecule, how does the pIC50 read?
A: Its pIC50 is 4.70 to 6.00.

Q: `CN1CCN(C(=O)c2cc3cc(-c4cc(NCc5ccc(CN6CCCCC6)cc5)c5cnccc5n4)ccc3n2C)CC1` [(1-methyl-5-(4-(4-(piperidin-1-ylmethyl)benzylamino)-1,6-naphthyridin-2-yl)-1H-indol-2-yl)(4-methylpiperazin-1-yl)methanone] was tested. Which pIC50 did it give?
A: Its pIC50 is at least 6.00.

Q: `CCN(CC)C(=O)c1nc2ccc(-c3cc(NCCCN4CCCCC4)c4cnccc4n3)cc2o1` [N,N-Diethyl-6-(4-(3-(piperidin-1-yl)propylamino)-1,6-naphthyridin-2-yl)benzo[d]oxazole-2-carboxamide] was tested. Which pIC50 did it give?
A: Its pIC50 is 4.70 to 6.00.

Q: `CN1CCC(NC(=O)c2cc3ccc(-c4cc(NCCCN5CCCCC5)c5cnccc5n4)cc3[nH]2)CC1` [N-(1-Methylpiperidin-4-yl)-6-(4-(3-(piperidin-1-yl)propylamino)-1,6-naphthyridin-2-yl)-1H-indole-2-carboxamide] was tested. Which pIC50 did it give?
A: The pIC50 was 4.70 to 6.00.

Q: `CN1CCC(NC(=O)c2cc3cc(-c4cc(NCCCN5CCCCC5)c5cnccc5n4)ccc3n2C)CC1` [1-methyl-N-(1-methylpiperidin-4-yl)-5-(4-((3-(piperidin-1-yl)propyl)amino)-1,6-naphthyridin-2-yl)-1H-indole-2-carboxamide] was tested. Which pIC50 did it give?
A: The pIC50 was at least 6.00.

Q: `CN1CCC(NC(=O)c2ccc(-c3cc(NC4CCNCC4)c4cnccc4n3)cc2)CC1` [N-(1-Methylpiperidin-4-yl)-4-(4-(piperidin-4-ylamino)-1,6-naphthyridin-2-yl)benzamide] was tested. Which pIC50 did it give?
A: Its pIC50 is 4.70 to 6.00.
